Laboratory results taken from ChEMBL document CHEMBL6103615, “Thymidylate Kinase-Targeted Antimicrobial Peptides via Phage Display: A Novel Strategy against Gram-Negative Bacteria” (J Med Chem, 2025).
pKd: −log10 of the molar value. ≈ marks a conversion by molar mass, not a printed value. Calls of active or inactive are those of the source. The rule behind the calls is not given here.

Assays:
[1] = Hydrophobicity of compound; format: physicochemical
[2] = Cytotoxicity against porcine IPEC-J2 cells assessed as cell viability at 128 uM incubated for 4 hrs by MTT assay relative to control; format: toxicity, cell-based, Sus scrofa; details: pig, read-out: Activity
Lactococcus lactis = test: Antibacterial activity against Lactococcus lactis NZ9000 incubated for 12 to 18 hrs by microbroth dilution method; format: functional; details: time 12-18 hrs
[3] = test system: Lacticaseibacillus rhamnosus; test: Antibacterial activity against Lactobacillus rhamnosus 7469 incubated for 12 to 18 hrs by microbroth dilution method; format: functional; details: time 12-18 hrs
Escherichia coli [4] = test: Induction of outer membrane permeability in Escherichia coli K88 assessed as NPN leakage at 2 uM relative to control; format: functional
[5] = Toxicity in ICR mouse assessed as change in spleen index at 10 to 40 mg/kg, ip treated for 3 days consecutively; format: organism-based; details: in vivo, 72 h, dose 10-40 mg/kg, time 3 day
Escherichia coli [6] = test: Antibacterial activity against Escherichia coli K99 incubated for 12 to 18 hrs by microbroth dilution method; format: functional; details: time 12-18 hrs
Bacteria [7] = test: Antibacterial activity against bacterial cells at 100 degreeC at 1 to 64 uM incubated for 60 mins; format: functional, organism-based; details: dose 1-64 µM
[8] = Selectivity ratio of MIC for antibacterial activity against Staphylococcus epidermidis 12228 to MIC for antibacterial activity against Escherichia coli K91; format: functional
Bacteria [9] = test: Antibacterial activity against bacterial cells at pH 2 to 12; format: functional
Escherichia coli [10] = test: Antibacterial activity against Escherichia coli K88 infected in ICR mouse model of peritoneal sepsis assessed as reduction in alveolar wall thickening in lungs at 20 mg/kg, ip measured after 10 hrs by H and E staining based analysis; format: functional, organism-based
Escherichia coli [11] = test: Antibacterial activity against Escherichia coli K88 infected in ICR mouse model of peritoneal sepsis assessed as bacterial load reduction in liver at 20 mg/kg, ip measured after 10 hrs; format: functional, organism-based
Pseudomonas aeruginosa = test: Antibacterial activity against Pseudomonas aeruginosa 27853 incubated for 12 to 18 hrs by microbroth dilution method; format: functional; details: time 12-18 hrs
Escherichia coli [12] = test: Induction of inner membrane permeability in Escherichia coli K88 assessed as increase in ONP level at 2 uM; format: functional, organism-based
[13] = Effect on secondary structure of compound in 50 percent TFE assessed as formation of alpha-helical conformation at 100 uM by CD analysis; format: physicochemical
[14] = Toxicity in ICR mouse assessed as body weight change at 10 to 40 mg/kg, ip treated for 3 days consecutively; format: organism-based; details: in vivo, 72 h, dose 10-40 mg/kg, time 3 day
Escherichia coli [15] = test: Induction of cytoplasmic membrane depolarization in Escherichia coli K88 at 2 uM by DiSC3-5 dye based analysis; format: functional, organism-based
[16] = Selectivity ratio of MIC for antibacterial activity against Escherichia coli 1515 to MIC for antibacterial activity against Escherichia coli K100; format: functional
[17] = Selectivity ratio of MIC for antibacterial activity against Escherichia coli K99 to MIC for antibacterial activity against Escherichia coli K102; format: functional
Enterococcus faecalis = test: Antibacterial activity against Enterococcus faecalis 29212 incubated for 12 to 18 hrs by microbroth dilution method; format: functional; details: time 12-18 hrs
[18] = Selectivity ratio of MIC for antibacterial activity against Pseudomonas aeruginosa PAO1 to MIC for antibacterial activity against Escherichia coli K97; format: functional
[19] = Selectivity ratio of MIC for antibacterial activity against Staphylococcus aureus 25923 to MIC for antibacterial activity against Escherichia coli K93; format: functional
[20] = Toxicity in ICR mouse assessed as impaired mobility at 40 mg/kg, ip measured for 30 to 4 hrs; format: organism-based; details: in vivo, time 30-4 hrs
Escherichia coli [21] = test: Induction of morphological changes in Escherichia coli K88 assessed as cytoplasmic leakage at 2 uM incubated for 1 hr by TEM analysis; format: functional, organism-based
Escherichia coli [22] = test: Induction of outer membrane permeability in Escherichia coli K88 assessed as NPN leakage; format: functional, organism-based; details: dose 1-32 µM
Bacteria [23] = test: Antibacterial activity against bacterial cells at pH 12; format: functional
[24] = Selectivity ratio of MIC for antibacterial activity against Pseudomonas aeruginosa 27853 to MIC for antibacterial activity against Escherichia coli K96; format: functional
Escherichia coli [25] = test: Induction of morphological changes in Escherichia coli K88 assessed as membrane contraction at 2 uM incubated for 1 hr by SEM analysis; format: functional, organism-based
[26] = Toxicity in ICR mouse assessed as change in liver index at 10 to 40 mg/kg, ip treated for 3 days consecutively; format: organism-based; details: in vivo, 72 h, dose 10-40 mg/kg, time 3 day
[27] = Toxicity in ICR mouse assessed as change in kidney index at 10 to 40 mg/kg, ip treated for 3 days consecutively; format: organism-based; details: in vivo, 72 h, dose 10-40 mg/kg, time 3 day
[28] = Selectivity ratio of MIC for antibacterial activity against Salmonella typhimurium 7731 to MIC for antibacterial activity against Escherichia coli K98; format: functional
Escherichia coli [29] = test: Antibacterial activity against Escherichia coli K88 infected in ICR mouse model of peritoneal sepsis assessed as reduction in vascular bruising in liver at 20 mg/kg, ip measured after 10 hrs by H and E staining based analysis; format: functional, organism-based
[30] = Selectivity ratio of MIC for antibacterial activity against Staphylococcus aureus 29213 to MIC for antibacterial activity against Escherichia coli K94; format: functional
Escherichia coli [31] = test: Inhibition of DNA migration in Escherichia coli K88 at 16 uM incubated for 40 mins by agarose gel electrophoresis.; format: functional, organism-based
[32] = Toxicity in ICR mouse assessed as change in serum CREA level at 10 to 40 mg/kg, ip treated for 3 days consecutively; format: organism-based; details: in vivo, 72 h, dose 10-40 mg/kg, time 3 day
Staphylococcus aureus [33] = test: Antibacterial activity against Staphylococcus aureus 29213 incubated for 12 to 18 hrs by microbroth dilution method; format: functional; details: time 12-18 hrs
Bacteria [34] = test: Antibacterial activity against bacterial cells at pH 2; format: functional
Staphylococcus aureus [35] = test: Antibacterial activity against methicillin-resistant Staphylococcus aureus 43300 incubated for 12 to 18 hrs by microbroth dilution method; format: functional; details: time 12-18 hrs
Escherichia coli [36] = test: Antibacterial activity against Escherichia coli K88 infected in ICR mouse model of peritoneal sepsis assessed as reduction in granulocyte infiltration in spleen at 20 mg/kg, ip measured after 10 hrs by H and E staining based analysis; format: functional, organism-based
[37] = Relative hydrophobic moment of compound; format: physicochemical
Escherichia coli [38] = test: Disruption of membrane integrity in Escherichia coli K88 at 2 uM by PI staining based flow cytometry (reference value: 0.1 %); format: functional
[39] = Hemolytic activity against human red blood cells at 2 to 128 uM relative to control; format: toxicity, cell-based, Erythrocyte; details: dose 2-128 µM, read-out: Activity
Bacteria [40] = test: Antibacterial activity against bacterial cells at 1 to 128 uM in presence of CaCl; format: functional, organism-based; details: dose 1-128 µM
Escherichia coli [41] = test: Antibacterial activity against Escherichia coli K88 infected in ICR mouse model of peritoneal sepsis assessed as bacterial load reduction in spleen at 20 mg/kg, ip measured after 10 hrs; format: functional, organism-based
Escherichia coli [42] = test: Antibacterial activity against Escherichia coli K88 infected in ICR mouse model of peritoneal sepsis assessed as reduction in vacuolar degeneration of hepatocytes at 20 mg/kg, ip measured after 10 hrs by H and E staining based analysis; format: functional, organism-based
[43] = (§1) Binding affinity to 6xHis-tagged recombinant Escherichia coli TMK assessed as dissociation constant by BLI assay
Escherichia coli [44] = test: as §1

In the case of `CC[C@@H](C)[C@H](NC(=O)CNC(=O)[C@@H]1CCCN1C(=O)[C@H](CCCCN)NC(=O)[C@H](Cc1c[nH]c2ccccc12)NC(=O)[C@@H](NC(=O)[C@H](CCCCN)NC(=O)[C@H](CCCCN)NC(=O)[C@H](Cc1c[nH]c2ccccc12)NC(=O)[C@H](Cc1ccc(O)cc1)NC(=O)[C@H](CCCCN)NC(=O)[C@@H](NC(=O)[C@H](CC(C)C)NC(=O)[C@H](CC(N)=O)NC(=O)CNC(=O)[C@@H](N)CO)[C@@H](C)O)[C@@H](C)CC)C(=O)N[C@@H](CCCCN)C(=O)N[C@@H](CCCCN)C(=O)N[C@@H](Cc1c[nH]c2ccccc12)C(=O)N[C@H](C(=O)N[C@@H](CCCCN)C(=O)O)[C@H](C)CC`, the Activity [1] was 0.391, the viability at 4 h, 128 µM [2] was > 80% and the MIC (Lactococcus lactis) was 128 µM (≈ 333 µg/mL). For the same compound, the MIC [3] was 128 µM (≈ 333 µg/mL), the Activity (Escherichia coli [4]) was ~50% and the Activity [5] was “Non-toxic”. For the same compound, the MIC (Escherichia coli [6]) was 4 µM (≈ 10.4 µg/mL), the Activity (Bacteria [7]) was “Active” and the Ratio [8] was >2. For the same compound, the MIC (Bacteria [9]) was 2 µM (≈ 5.21 µg/mL), the Activity (Escherichia coli [10]) was “Active” and the Activity (Escherichia coli [11]) was “Active; Activity Comparable To Colistin Treatment”. The MIC (Pseudomonas aeruginosa) was 8 µM (≈ 20.8 µg/mL), the Activity (Escherichia coli [12]) was “Active” and the Activity [13] was “Active”. The Activity [14] was “Non-toxic”, the Activity (Escherichia coli [15]) was “Active” and the Ratio [16] was >2. For the same compound, the Ratio [17] was >2, the MIC (Enterococcus faecalis) was 128 µM (≈ 333 µg/mL) and the Ratio [18] was >2. For the same compound, the Ratio [19] was >2, the Activity [20] was “Toxic” and the Activity (Escherichia coli [21]) was “Active”. The Activity (Escherichia coli [22]) was “Dose-dependent-effect”, the MIC (Bacteria [23]) was 4 µM (≈ 10.4 µg/mL) and the Ratio [24] was >2. For the same compound, the Activity (Escherichia coli [25]) was “Active”, the Activity [26] was “Non-toxic” and the Activity [27] was “Non-toxic”. The Ratio [28] was >2, the Activity (Escherichia coli [29]) was “Active” and the Ratio [30] was >2. For the same compound, the inhibition (Escherichia coli [31]) was “Active”, the Activity [32] was “Non-toxic” and the MIC (Staphylococcus aureus [33]) was 128 µM (≈ 333 µg/mL). For the same compound, the MIC (Bacteria [34]) was 4 µM (≈ 10.4 µg/mL), the MIC (Staphylococcus aureus [35]) was 128 µM (≈ 333 µg/mL) and the Activity (Escherichia coli [36]) was “Active”. For the same compound, the Activity [37] was 0.583, the Activity (Escherichia coli [38]) was 96.8% and the hemolysis at up to 128 µM [39] was < 5%. The Activity (Bacteria [40]) was “inactive”, the Activity (Escherichia coli [41]) was “Active; Activity Comparable To Colistin Treatment” and the Activity (Escherichia coli [42]) was “Active”. For the same compound, the pKd [43] was 5.33 and the Activity (Escherichia coli [44]) was “Dose-dependent-effect”.
